This note sets out measurements from patent publication US12662451B2, “Chemical compounds and uses thereof” (GLAXOSMITHKLINE INTELLECTUAL PROPERTY (NO.4) LIMITED, priority 2023, dated 2026).

The structures appear in SMILES notation. Counter-ions that a name gives are not always drawn.

This test deals with T1, recombinant full-length WRN protein (1-1432) (Homo sapiens, UniProt Q14191).
T1 construct: recombinant full-length WRN protein (1-1432)
T1 sequence (Q14191 whole entry): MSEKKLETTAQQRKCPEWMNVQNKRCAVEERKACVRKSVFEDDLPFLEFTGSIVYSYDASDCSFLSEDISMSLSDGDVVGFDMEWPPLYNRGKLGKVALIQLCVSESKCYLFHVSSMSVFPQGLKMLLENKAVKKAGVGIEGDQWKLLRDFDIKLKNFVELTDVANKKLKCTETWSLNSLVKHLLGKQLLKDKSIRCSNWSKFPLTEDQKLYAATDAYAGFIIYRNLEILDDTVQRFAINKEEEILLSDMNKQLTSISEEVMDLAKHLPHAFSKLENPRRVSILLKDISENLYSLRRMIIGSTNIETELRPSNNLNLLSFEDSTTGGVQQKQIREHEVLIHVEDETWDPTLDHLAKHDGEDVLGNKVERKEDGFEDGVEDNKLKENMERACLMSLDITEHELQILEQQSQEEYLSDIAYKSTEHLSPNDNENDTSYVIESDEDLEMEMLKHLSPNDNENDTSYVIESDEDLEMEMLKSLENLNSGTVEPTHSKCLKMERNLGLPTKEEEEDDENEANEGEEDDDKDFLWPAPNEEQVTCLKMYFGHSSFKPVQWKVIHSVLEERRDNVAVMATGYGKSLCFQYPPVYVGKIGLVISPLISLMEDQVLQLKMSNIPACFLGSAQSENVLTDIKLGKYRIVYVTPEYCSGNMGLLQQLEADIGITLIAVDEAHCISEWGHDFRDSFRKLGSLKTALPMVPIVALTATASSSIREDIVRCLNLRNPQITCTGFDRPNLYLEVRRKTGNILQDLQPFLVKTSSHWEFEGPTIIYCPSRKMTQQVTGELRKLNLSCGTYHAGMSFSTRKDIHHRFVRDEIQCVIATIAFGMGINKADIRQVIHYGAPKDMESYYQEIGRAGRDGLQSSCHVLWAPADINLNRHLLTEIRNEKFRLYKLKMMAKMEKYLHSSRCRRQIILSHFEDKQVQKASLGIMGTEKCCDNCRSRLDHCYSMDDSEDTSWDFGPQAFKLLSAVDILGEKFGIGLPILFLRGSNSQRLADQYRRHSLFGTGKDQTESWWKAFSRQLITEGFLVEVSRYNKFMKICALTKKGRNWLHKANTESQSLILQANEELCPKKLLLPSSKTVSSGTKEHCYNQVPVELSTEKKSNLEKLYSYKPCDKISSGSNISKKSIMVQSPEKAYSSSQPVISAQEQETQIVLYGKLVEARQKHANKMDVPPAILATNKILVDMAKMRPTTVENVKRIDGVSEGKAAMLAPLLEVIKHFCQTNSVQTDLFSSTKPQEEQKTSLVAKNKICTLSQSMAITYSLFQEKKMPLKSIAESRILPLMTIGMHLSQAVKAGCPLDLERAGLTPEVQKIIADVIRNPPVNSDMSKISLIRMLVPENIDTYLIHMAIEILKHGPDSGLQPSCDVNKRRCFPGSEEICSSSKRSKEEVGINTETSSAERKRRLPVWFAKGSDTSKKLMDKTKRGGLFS
The test can be described thus: WRN unwinding activity, fluorogenic 384-well assay (Example A). In kind it is biochemical. The conditions noted are these: WRN unwinding activity, 4 hr; Table 2; read-out: 4 hr UNW pIC50 (converted). The procedure:
Functional WRN unwinding activity can be measured using a fluorogenic plate based 384 well assay configured to measure the separation of labeled double stranded DNA substrate. Compounds were dosed out in neat DMSO with a 1:3 serial dilution scheme. 100 nL of compound was stamped into Greiner low volume black assay plates (Greiner Cat #784076) using the Echo Acoustic Dispenser to generate assay ready plates. All solutions were prepared in assay buffer (25 mM TRIS (pH8.0), 5 mM NaCl, 2 mM MgCl2, 1 mM DTT, 0.05% BSA) for this 10 μL low volume reaction. To prepare the solutions, a 2×WRN Enzyme cocktail was made containing 200 pM of recombinant full-length WRN protein (1-1432). A 2× Substrate cocktail was made to consist of both 200 μM ATP (any ultrapure ATP sample) and 12 nM of the fluorescent quenched labeled double stranded DNA oligomer (IDT Custom synthesis; 5′-5IABkFQ (SEQ ID NO. 1)/GCACTGGCCGTCGTTTTACGGTCGTGACT-3′ (SEQ ID NO. 2): 5′-TTTTTTACTTAACGACGGCCAGTGC (SEQ ID NO. 3)/36-TAMTSP/-3′ (SEQ ID NO. 4)). To start the reaction, 5 μL of assay buffer was added to a single column to serve as the low control. Following this, 5 μL of 2×WRN Enzyme was added in all wells except the buffer low control wells. The reaction plate was covered and incubated at ambient temperature for 4 hours to allow for time dependent inhibition if it existed. After 4 hours, the addition of 5 μL of 2×-ATP/DNA substrate cocktail was added across all wells of the assay plate. This initiated the reaction, as the plate was incubated at ambient temperature for 60 minutes for the unwinding reaction to occur. A 10 mM EDTA solution was prepared and added at 5 μL across the entire plate after 60 minutes to quench the samples for an endpoint measurement. Fluorescent intensity was measured using excitation and emission wavelengths of 525 nm and 598 nm, respectively. High florescent intensity (DMSO with buffer) represents full inhibition of unwinding activity and low florescent intensity (DMSO with enzyme) represents no inhibition of unwinding activity. The potency of the compounds was determined using a four-parameter inhibition model to generate pIC50, Hill Slope, maximum inhibition (see Table 2).
In the case of `CC(=O)N1CCc2cc(S(=O)(=O)N(C)c3ccc([C@H]4CCC[C@@H](C(=O)Nc5ccc(C(F)(F)F)cc5F)[C@@H]4C(=O)O)cc3)ccc21` (single isomer, unassigned) [Example 89], the IC50 is 200 nM. For the compound `Cc1nc2cc(S(=O)(=O)N(C)c3ccc([C@H]4CCC[C@@H](C(=O)Nc5ccc(C(F)(F)F)cc5F)[C@@H]4C(=O)O)cc3)ccc2[nH]1` (single isomer, unassigned) [Example 91], the IC50 is 126 nM. For the compound `CCO[C@@H]1C[C@H](C(=O)Nc2ccc(C(F)(F)F)cc2F)[C@@H](C(=O)O)[C@H](c2ccc(N(C)S(=O)(=O)c3ccc4c(c3)nc(C)n4C)cc2)C1` (single isomer, unassigned) [Example 137], the IC50 was 251 nM. `Cc1nc2cc(S(=O)(=O)N(C)c3ccc([C@H]4C[C@@H](O)C[C@@H](C(=O)Nc5ccc(C(F)(F)F)cc5F)[C@H]4C(=O)O)cc3)ccc2n1C` (single isomer, unassigned) [Example 142]: the IC50 is 2000 nM. Regarding `Cc1nc2cc(S(=O)(=O)N(C)c3ccc([C@H]4C[C@@H](O)C[C@@H](C(=O)Nc5ccc(C(F)(F)F)cc5F)[C@H]4C(=O)O)cc3)ccc2n1C` (single isomer, unassigned) [Example 143], the IC50 was 15.8 nM. `Cc1nc2cc(S(=O)(=O)N(C)c3ccc([C@H]4C[C@@H](O)C[C@@H](C(=O)Nc5ccc(C(F)(F)F)cc5F)[C@@H]4C(=O)O)cc3)ccc2n1C` (single isomer, unassigned) [Example 144]: the IC50 is 50.1 nM. With `CO[C@@H]1C[C@H](c2ccc(N(C)S(=O)(=O)c3ccc4c(c3)nc(C)n4C)cc2)[C@@H](C(=O)O)[C@H](C(=O)Nc2ccc(C(F)(F)F)cc2F)C1` (single isomer, unassigned) [Example 146], the IC50 was 100 nM. `Cc1nc2cc(S(=O)(=O)N(C)c3ccc([C@@H]4C[C@H](Oc5ccccc5)C[C@H](C(=O)Nc5ccc(C(F)(F)F)cc5F)[C@H]4C(=O)O)cc3)ccc2n1C` (single isomer, unassigned) [Example 153]: the IC50 was 3160 nM. Take `Cc1nc2cc(S(=O)(=O)N(C)c3ccc([C@H]4CCC[C@@H](C(=O)Nc5ccc(C(F)(F)F)cn5)[C@@H]4C(=O)O)cc3)ccc2n1C` (single isomer, unassigned) [Example 169]: the IC50 was 7940 nM.

In the case of `Cc1nc2cc(S(=O)(=O)N(C)c3ccc([C@H]4CCC[C@@H](C(=O)Nc5c(F)cc(C(C)C)cc5F)[C@@H]4C(=O)O)cc3)ccc2n1C` (single isomer, unassigned) [Example 170], the IC50 is 79.4 nM.

On to `Cc1nc2cc(S(=O)(=O)N(C)c3ccc([C@H]4CCC[C@@H](COc5ccc(C(F)(F)F)cc5)[C@@H]4C(=O)O)cc3)cc([C@@H]3CCCNC3)c2n1C` (single isomer, unassigned) [Example 209, hydrochloride], for which the IC50 was 2000 nM. `Cc1nc2cc(S(=O)(=O)Nc3ccc([C@H]4CCC[C@@H](C(=O)Nc5ccc(C(F)(F)F)cc5F)[C@@H]4C(=O)O)cc3)ccc2n1C` (single isomer, unassigned) [Example 223]: the IC50 was 158 nM.

In the case of `O=C(O)[C@@H]1[C@@H](c2ccc(C3CCS(=O)(=O)C3)cc2)CCC[C@H]1C(=O)Nc1ccc(C(F)(F)F)cc1F` (single isomer, unassigned) [Example 231, (1R,2S,6R)-2-(4-((R*)-1,1-dioxidotetrahydrothiophen-3-yl)phenyl)-6-((2-fluoro-4-(trifluoromethyl)phenyl)carbamoyl)cyclohexane-1-carboxylic acid], the IC50 is 316 nM.

Take `Cc1nc2cc(S(=O)(=O)N3CCOc4cc([C@@H]5CCC[C@H](C(=O)Nc6ccc(C(F)(F)F)cc6F)[C@H]5C(=O)O)ccc43)ccc2n1C` (single isomer, unassigned) [Example 242]: the IC50 was 794 nM. For the compound `CN[C@@H]1C[C@H](C(=O)Nc2ccc(C(F)(F)F)cc2F)[C@@H](C(=O)O)[C@H](c2ccc(N(C)S(=O)(=O)c3ccc4c(c3)nc(C)n4C)cc2)C1` (single isomer, unassigned) [Example 257], the IC50 was 251 nM. In the case of `CC(=O)N[C@H]1C[C@H](COc2ccc(C(F)(F)F)cc2)[C@@H](C(=O)O)[C@H](c2ccc(N(C)S(=O)(=O)c3ccc4c(c3)nc(C)n4C)cc2)C1` (single isomer, unassigned) [Example 297] it was 2510 nM; in that of `Cc1nc2cc(S(=O)(=O)N(C)c3ccc([C@@H]4CNC[C@H](C(=O)Nc5ccc(C(F)(F)F)cc5F)[C@H]4C(=O)O)cc3)ccc2n1C` (single isomer, unassigned) [Example 307], 631 nM; in that of `N#Cc1cnnc(-c2ccc(C3CCCC(C(=O)Nc4ccc(C(F)(F)F)cc4F)[C@@H]3C(=O)O)cc2)c1` (stereo in doubt) [Example 39, (1R,2R,6S)-2-(4-(5-cyanopyridazin-3-yl)phenyl)-6-((2-fluoro-4-(trifluoromethyl)phenyl)carbamoyl)cyclohe xane-1-carboxylic acid], 2000 nM.

For the compound `N#Cc1ccncc1-c1ccc(C2CCCC(C(=O)Nc3ccc(C(F)(F)F)cc3F)[C@@H]2C(=O)O)cc1` (stereo in doubt) [Example 49, (1R,2R,6S)-2-(4-(4-cyanopyridin-3-yl)phenyl)-6-((2-fluoro-4-(trifluoromethyl)phenyl)carbamoyl)cyclohe xane-1-carboxylic acid], the IC50 was 1000 nM. In the case of `CCCO[C@@H]1C[C@H](C(=O)Nc2ccc(C(F)(F)F)cc2F)[C@@H](C(=O)O)[C@H](c2ccc(N(C)S(=O)(=O)c3ccc4c(c3)nc(C)n4C)cc2)C1` (stereo in doubt) [Example 150, rel-(1R,2R,4R,6S)-2-((2-fluoro-4-(trifluoromethyl)phenyl)carbamoyl)-4-propoxy-6-(4-((N,1,2-trimethyl-1H-benzo[d]imidazole)-5-sulfonamido)phenyl)cyclohexane-1-carboxylic acid] it was 3980 nM. Consider `Cc1nc2cc(S(=O)(=O)N(C)c3ccc([C@@H]4C[C@H](OCC5CCC5)C[C@H](C(=O)Nc5ccc(C(F)(F)F)cc5F)[C@H]4C(=O)O)cc3)ccc2n1C` (stereo in doubt) [Example 155, rel-(1R,2R,4R,6S)-4-(cyclobutylmethoxy)-2-((2-fluoro-4-(trifluoromethyl)phenyl)carbamoyl)-6-(4-((N,1,2-trimethyl-1H-benzo[d]imidazole)-5-sulfonamido)phenyl)cyclohexane-1-carboxylic acid], for which the IC50 is 794 nM.

As for `Cc1nc2cc(S(=O)(=O)N(C)c3ccc([C@@H]4C[C@H](N(C)C)C[C@H](C(=O)Nc5ccc(C(F)(F)F)cc5F)[C@H]4C(=O)O)cc3)ccc2n1C` (stereo in doubt) [Example 252, rel-(1R,2R,4R,6S)-4-(dimethylamino)-2-((2-fluoro-4-(trifluoromethyl)phenyl)carbamoyl)-6-(4-((N,1,2-trimethyl-1H-benzo[d]imidazole)-5-sulfonamido)phenyl)cyclohexane-1-carboxylic acid], the IC50 is 63.1 nM.

`CC(=O)N(C)[C@H]1C[C@H](C(=O)Nc2ccc(C(F)(F)F)cc2F)[C@@H](C(=O)O)[C@H](c2ccc(N(C)S(=O)(=O)c3ccc4c(c3)nc(C)n4C)cc2)C1` (stereo in doubt) [Example 293, rel-(1R,2R,4S,6S)-2-((2-fluoro-4-(trifluoromethyl)phenyl)carbamoyl)-4-(N-methylacetamido)-6-(4-((N,1,2-trimethyl-1H-benzo[d]imidazole)-5-sulfonamido)phenyl)cyclohexane-1-carboxylic acid]: the IC50 was 31.6 nM. Consider `Cc1nc2cc(S(=O)(=O)N(C)c3ccc([C@@H]4C[C@@H](N)C[C@H](C(=O)Nc5ccc(C(F)(F)F)cc5F)[C@H]4C(=O)O)cc3)ccc2n1C` (stereo in doubt) [Example 299, rel-(1R,2R,4S,6S)-4-amino-2-((2-fluoro-4-(trifluoromethyl)phenyl)carbamoyl)-6-(4-((N,1,2-trimethyl-1H-benzo[d]imidazole)-5-sulfonamido)phenyl)cyclohexane-1-carboxylic acid], for which the IC50 was 63.1 nM. Consider `Cc1nc2cc(S(=O)(=O)N(C)c3ccc([C@@H]4C[C@H](N)C[C@H](C(=O)Nc5ccc(C(F)(F)F)cc5F)[C@H]4C(=O)O)cc3)ccc2n1C` (stereo in doubt) [Example 302, rel-(1R,2R,4R,6S)-4-amino-2-((2-fluoro-4-(trifluoromethyl)phenyl)carbamoyl)-6-(4-((N,1,2-trimethyl-1H-benzo[d]imidazole)-5-sulfonamido)phenyl)cyclohexane-1-carboxylic acid], for which the IC50 is 126 nM.
